Consider three compounds from patent US20140235558A1, “PHARMACEUTICAL COMPOSITION HAVING ACTIVITY OF ANTICANCER” (Hanall Biopharma Co., Ltd., priority 2010, published 2014).

Structures can show the parent of a compound that is named as a salt. Where two headings read alike, the source gives them in different places.

Assay [1] deals with human breast cancer cell line MCF7. In words: MTT cell growth inhibition, MCF7 cells. Type of assay: cell-based. On the procedure: (§1) Briefly, MCF7 and NCI-N87 cells were grown at a density of 5,000 cells/well in DMEM and RPMI1640 media (both purchased from Gibco Life Technologies, USA), respectively, both supplemented with 10% (v/v) bovine calf serum (BCS), on 96-well plates for 16 h (Temp.: 37° C., pH: 7.0˜7.4). Then, the MCF7 cells were incubated for 48 h with 2.5 mM 2-deoxy-D-glucose and 100 μM phenformin HCl, solely or in combination while NCI-N87 cells were incubated for 48 h with 2.5 mM 2-deoxy-D-glucose and 700 μM phenformin HCl, solely or in combination (Temp.: 37° C., pH: 7.0˜7.4). To quantitate viable cells after incubation with 2-deoxy-D-glucose and phenformin HCl, the cell cultures were further incubated for 3 h in the presence of MTT. The formazan crystals thus formed were dissolved with DMSO (dimethyl sulfoxide) before reading absorbance at 560 nm.
(§2) After the 48 h incubation, viable cells were counted on the well plates treated with 2-deoxy-D-glucose and phenformin, and expressed as % cell growth inhibition relative to the count of the viable cells on the well plates treated with neither 2-deoxy-D-glucose nor phenformin.
(§3) When the human breast cancer cell line MCF7 and the human stomach cancer cell line NCI-N87 were treated with various concentrations of phenformin and 2-deoxy-D-glucose, % inhibition of cancer cell growth was measured. The same procedure as in Experimental Example 2 was repeated, with the exception that 2-deoxy-D-glucose and phenformin HCl were used at different concentrations.
(§4) The same procedure as in Experimental Example 3 was repeated in the breast cancer cell line MCF7 and the colorectal cancer cell line HCT116 (both purchased from the Korean Cell Line Bank), with the exception that the materials and concentrations indicated in Tables 5 and 6 were employed.

Assay [2] concerns colorectal cancer cell line HCT116. The assay is described as follows: MTT cell growth inhibition, HCT116 cells. The class given is cell-based, human. How it is done: as §1, §2, §4
For assay [3], the system named is AMPKα (5′-AMP-activated protein kinase alpha). The assay is described as follows: AMPK activation: phosphorylation of AMPKα at Thr172 in MCF7 cells (AMPKα immunoassay kit). Type of assay: cell-based, human. The following applies: MCF7, 24 h. How it is done: AMPK activation occurs when the generation of ATP, an energy source necessary for the survival of cancer cells, is inhibited. […] In this regard, AMPKα (5'-AMP-activated protein kinase alpha) activation was measured in the MCF7 human breast cancer cells using the AMPKα immunoassay kit (Invitrogen, catalog No. KHO0651). […] Then, the cells were lysed using the AMPKα immunoassay kit (Invitrogen, catalog No. KHO0651) according to the manufacturer's instruction.

Assay [4] concerns human stomach cancer cell line NCI-N87. In words: MTT cell growth inhibition, NCI-N87 cells. Type of assay: cell-based. On the procedure:
as §1, §2, §3

For `CN(C)C(=N)N=C(N)N` [Metformin HCl, metformin hydrochloride], the inhibition at 625 µM in assay [1] (Homo sapiens, MCF7, metformin HCl 0.625 mM alone, read-out: Tumor Growth Inhibition (%)) was determined as 9%; in assay [2] (Homo sapiens, HCT-116, metformin HCl 0.625 mM alone, read-out: Tumor Growth Inhibition (%)) it was 7%. In addition, the inhibition at 1250 µM in assay [1] (Homo sapiens, MCF7, metformin HCl 1.25 mM alone, read-out: Tumor Growth Inhibition (%)) turned out to be 22%; in assay [2] (Homo sapiens, HCT-116, metformin HCl 1.25 mM alone, read-out: Tumor Growth Inhibition (%)) it was 11%. Further, the inhibition at 2500 µM came to 24% in assay [1] (Homo sapiens, MCF7, metformin HCl 2.5 mM alone, read-out: Tumor Growth Inhibition (%)) and 40% in assay [2] (Homo sapiens, HCT-116, metformin HCl 2.5 mM alone, read-out: Tumor Growth Inhibition (%)). The inhibition at 5000 µM turned out to be 30% in assay [1] (Homo sapiens, MCF7, metformin HCl 5.0 mM alone, read-out: Tumor Growth Inhibition (%)) and 64% in assay [2] (Homo sapiens, HCT-116, metformin HCl 5.0 mM alone, read-out: Tumor Growth Inhibition (%)). Moreover, the inhibition at 10000 µM in assay [1] (Homo sapiens, MCF7, metformin HCl 10.0 mM alone, read-out: Tumor Growth Inhibition (%)) stood at 38%; in assay [2] (Homo sapiens, HCT-116, metformin HCl 10.0 mM alone, read-out: Tumor Growth Inhibition (%)), 63%. Moreover, the inhibition at 20000 µM in assay [1] (Homo sapiens, MCF7, metformin HCl 20.0 mM alone, read-out: Tumor Growth Inhibition (%)) was found to be 61%; in assay [2] (Homo sapiens, HCT-116, metformin HCl 20.0 mM alone, read-out: Tumor Growth Inhibition (%)), 66%.

Take `OCC1O[C@H](O)C[C@@H](O)[C@@H]1O` (mixture of isomers) [2-Deoxy-D-glucose, 2-deoxy-D-glucose]: the “Normalized to Control (P-AMPK)” value in assay [3] (2-deoxy-D-glucose 2.5 mM) was 1.46. Further, the “P-AMPK (Unit/ml)” value in assay [3] (2-deoxy-D-glucose 2.5 mM) turned out to be 7.62 ± 1.2 Unit/ml. In addition, the inhibition at 2500 µM in assay [1] (Homo sapiens, MCF7, 48 h, read-out: Cell Growth Inhibition (%)) worked out at 44.2%; in assay [4] (Homo sapiens, NCI-N87, 48 h, 2-deoxy-D-glucose 2.5 mM), 15.1%. Moreover, the “Tumor Growth Inhibition (%)” value in assay [1] (MCF7, 2-DG 100 μM alone) amounted to 0%; in assay [1] (MCF7, 2-DG 500 μM alone), 5%; in assay [1] (MCF7, 2-DG 2 mM alone), 31%; in assay [1] (MCF7, 2-DG 2.5 mM alone (Table 5)), 58%; in assay [1] (MCF7, 2-DG 5.0 mM alone) it was 76%; in assay [1] (MCF7, 2-DG 20.0 mM alone) it was 91%. Moreover, the “Tumor Growth Inhibition (%)” value is 3% in assay [4] (NCI-N87, 2-DG 100 μM alone); 6% in assay [4] (NCI-N87, 2-DG 500 μM alone); 32% in assay [4] (NCI-N87, 2-DG 2 mM alone); 62% in assay [2] (2-DG 2.5 mM alone); 79% in assay [2] (2-DG 5.0 mM alone); 93% in assay [2] (2-DG 20.0 mM alone). The “inhibitory effect on breast cancer cells relative to stomach cancer cells” value in assay [1] (MCF7 vs NCI-N87, 2.5 mM) is given as “about 3 times”.

In the case of `N=C(N)NC(=N)NCCc1ccccc1` [Phenformin HCl, phenformin hydrochloride], the “Normalized to Control (P-AMPK)” value in assay [3] (phenformin HCl 50 nM [sic]) worked out at 5.98. Moreover, the “P-AMPK (Unit/ml)” value in assay [3] (phenformin HCl 50 nM [sic]) amounted to 12.14 ± 2.0 Unit/ml. Also, the inhibition at 100 µM is 14.3% in assay [1] (Homo sapiens, MCF7, 48 h, phenformin HCl 100 μM, read-out: Cell Growth Inhibition (%)); 14% in assay [1] (Homo sapiens, MCF7, phenformin 100 μM alone, read-out: Tumor Growth Inhibition (%)); 24% in assay [4] (Homo sapiens, NCI-N87, phenformin 100 μM alone, read-out: Tumor Growth Inhibition (%)). Further, the inhibition at 10 µM was 9% in assay [1] (Homo sapiens, MCF7, phenformin 10 μM alone, read-out: Tumor Growth Inhibition (%)) and 22% in assay [4] (Homo sapiens, NCI-N87, phenformin 10 μM alone, read-out: Tumor Growth Inhibition (%)). Moreover, the inhibition at 50 µM was found to be 12% in assay [1] (Homo sapiens, MCF7, phenformin 50 μM alone, read-out: Tumor Growth Inhibition (%)) and 24% in assay [4] (Homo sapiens, NCI-N87, phenformin 50 μM alone, read-out: Tumor Growth Inhibition (%)). Also, the inhibition at 200 µM in assay [1] (Homo sapiens, MCF7, phenformin 200 μM alone, read-out: Tumor Growth Inhibition (%)) is 18%; in assay [4] (Homo sapiens, NCI-N87, phenformin 200 μM alone, read-out: Tumor Growth Inhibition (%)), 24%. Moreover, the inhibition at 400 µM in assay [1] (Homo sapiens, MCF7, phenformin 400 μM alone, read-out: Tumor Growth Inhibition (%)) is 31%; in assay [4] (Homo sapiens, NCI-N87, phenformin 400 μM alone, read-out: Tumor Growth Inhibition (%)) it was 26%. Also, the inhibition at 1000 µM stood at 58% in assay [1] (Homo sapiens, MCF7, phenformin 1 mM alone, read-out: Tumor Growth Inhibition (%)) and 39% in assay [4] (Homo sapiens, NCI-N87, phenformin 1 mM alone, read-out: Tumor Growth Inhibition (%)). Further, the inhibition at 700 µM in assay [4] (Homo sapiens, NCI-N87, 48 h, phenformin HCl 700 μM) was 52.5%. Moreover, the “inhibitory effect on stomach cancer cells relative to breast cancer cells” value in assay [4] (NCI-N87 (700 μM) vs MCF7 (100 μM), 7-fold increased concentration) is given as “approximately 4 fold”.
